The compounds below were run on IFNα-induced STAT phosphorylation (pSTAT5) in human whole blood (assay: IFNα-Induced STAT Phosphorylation in Human Whole Blood). Settings: 1 h incubation with compound, 1000 U/mL recombinant human IFNα A/D for 15 min, pSTAT5 in CD3 positive population, read-out: IFNα-Induced Stat Phosph. (IC50).
Assay type: cell-based
Experimental: IFNα-Induced STAT Phosphorylation in Human Whole Blood
After an hour long incubation with compound, human whole blood (drawn with either EDTA or ACD-A as anti-coagulant) was stimulated with 1000 U/mL recombinant human IFNα A/D (R&D Systems 11200-2) for 15 min. The stimulation was stopped by adding Fix/Lyse buffer (BD 558049). Cells were stained with a CD3 FITC antibody (BD 555916), washed, and permeabilized on ice using Perm III buffer (BD 558050). Cells were then stained with an Alexa-Fluor 647 pSTAT5 (pY694) antibody (BD 612599) for 30 min prior to analysis on the FACS Canto II. The amount of pSTAT5 expression was quantitated by median fluorescence intensity after gating on the CD3 positive population.

In order of falling IC50:
1. CNC(=O)c1nnc(Nc2ccc(C(C)(C)OC(=O)CN)cn2)cc1Nc1ncccc1S(C)(=O)=O [Example 67]  3.58 µM
2. CNC(=O)c1nnc(NC(=O)COCc2ccccc2)cc1Nc1ncccc1S(C)(=O)=O [Example 133]  1.57 µM
3. CNC(=O)c1nnc(NC(=O)C2Cc3ccccc32)cc1Nc1ncccc1S(C)(=O)=O (stereo not shown) [Example 66]  1.24 µM
4. CNC(=O)c1nnc(Nc2cc(C(C)(C)NC(C)=O)ccn2)cc1Nc1ncccc1S(C)(=O)=O [Example 70]  1.1 µM
5. CNC(=O)c1nnc(NC(=O)CC(C)(C)C)cc1Nc1ncccc1S(C)(=O)=O [Example 139]  0.893 µM
6. CNC(=O)c1nnc(Nc2ccnc(C(F)(F)F)n2)cc1Nc1ncccc1S(C)(=O)=O [Example 138]  0.447 µM
7. CNC(=O)c1nnc(NC(=O)C(C)C)cc1Nc1ncccc1S(C)(=O)=O [Example 131]  0.434 µM
8. CNC(=O)c1nnc(Nc2cc(F)c(F)cn2)cc1Nc1ncccc1S(C)(=O)=O [Example 87]  0.417 µM
9. CCOc1cc(Nc2cc(Nc3ncccc3S(C)(=O)=O)c(C(=O)NC)nn2)ncc1C(=O)NC1CC1 [Example 148]  0.408 µM
10. CNC(=O)c1nnc(Nc2ccc(OCC(C)(C)O)cn2)cc1Nc1ncccc1S(C)(=O)=O [Example 77]  0.398 µM
11. CCCOC(=O)Nc1cc(Nc2ncccc2S(C)(=O)=O)c(C(=O)NC)nn1 [Example 136]  0.349 µM
12. CNC(=O)c1nnc(Nc2cccc(-c3ccccc3)n2)cc1Nc1ncccc1S(C)(=O)=O [Example 117]  0.334 µM
13. CNC(=O)c1nnc(Nc2cncc(C(F)(F)F)n2)cc1Nc1ncccc1S(C)(=O)=O [Example 127]  0.302 µM
14. CNC(=O)c1nnc(NC(=O)OC(C)C)cc1Nc1ncccc1S(C)(=O)=O [Example 134]  0.296 µM
15. CNC(=O)c1nnc(Nc2ccnc(-c3ccccc3)n2)cc1Nc1ncccc1S(C)(=O)=O [Example 111]  0.248 µM
16. CCC(O)(CC)c1cnc(Nc2cc(Nc3ncccc3S(C)(=O)=O)c(C(=O)NC)nn2)cc1Cl [Example 147]  0.231 µM
17. CCOC(=O)Nc1cc(Nc2ncccc2S(C)(=O)=O)c(C(=O)NC)nn1 [Example 132]  0.209 µM
18. CNC(=O)c1nnc(Nc2ccc(C(C)(C)NC(=O)CN)nn2)cc1Nc1ncccc1S(C)(=O)=O [Example 65]  0.193 µM
19. CNC(=O)c1nnc(Nc2cncc(-c3ccccc3)n2)cc1Nc1ncccc1S(C)(=O)=O [Example 115]  0.19 µM
20. CNC(=O)c1nnc(NC(=O)C=C2CCOCC2)cc1Nc1ncccc1S(C)(=O)=O [Example 123]  0.183 µM
21. CCCC(=O)Nc1cc(Nc2ncccc2S(C)(=O)=O)c(C(=O)NC)nn1 [Example 108]  0.167 µM
22. CNC(=O)c1nnc(NC(=O)NC(C)(C)C)cc1Nc1ncccc1S(C)(=O)=O [Example 122]  0.156 µM
23. CNC(=O)c1nnc(NC(=O)OC)cc1Nc1ncccc1S(C)(=O)=O [Example 112]  0.142 µM
24. CCOc1cc(Nc2cc(Nc3ncccc3S(C)(=O)=O)c(C(=O)NC)nn2)ncc1C(C)(C)O [Example 149]  0.141 µM
25. CNC(=O)c1nnc(Nc2ccc(-c3ccccc3)cn2)cc1Nc1ncccc1S(C)(=O)=O [Example 102]  0.138 µM
26. CNC(=O)c1nnc(Nc2cnc(C(F)(F)F)cn2)cc1Nc1ncccc1S(C)(=O)=O [Example 95]  0.133 µM
27. CNC(=O)c1nnc(NC(=O)CCOC)cc1Nc1ncccc1S(C)(=O)=O [Example 118]  0.131 µM
28. CNC(=O)c1nnc(Nc2ccc(-c3ccccc3)nn2)cc1Nc1ncccc1S(C)(=O)=O [Example 106]  0.124 µM
29. CNC(=O)c1nnc(Nc2cc(COC)ncn2)cc1Nc1ncccc1S(C)(=O)=O [Example 101]  0.095 µM
30. CNC(=O)c1nnc(Nc2cccc(C(F)(F)F)n2)cc1Nc1ncccc1S(C)(=O)=O [Example 113]  0.088 µM
31. CNC(=O)c1nnc(NC(=O)CC(C)C)cc1Nc1ncccc1S(C)(=O)=O [Example 129]  0.08 µM
32. CNC(=O)c1nnc(Nc2ccc(OCCOC)nn2)cc1Nc1ncccc1S(C)(=O)=O [Example 64]  0.079 µM
33. CNC(=O)c1nnc(Nc2cc(C(C)(C)N(C)C)ccn2)cc1Nc1ncccc1S(C)(=O)=O [Example 73]  0.076 µM
34. CCOc1ccc(Nc2cc(Nc3ncccc3S(C)(=O)=O)c(C(=O)NC)nn2)nn1 [Example 83]  0.076 µM
35. CCCCC(=O)Nc1cc(Nc2ncccc2S(C)(=O)=O)c(C(=O)NC)nn1 [Example 119]  0.073 µM
36. CNC(=O)c1nnc(NC(=O)C=C(C)C)cc1Nc1ncccc1S(C)(=O)=O [Example 120]  0.062 µM
37. CNC(=O)c1nnc(NC(=O)C=C2CCCCC2)cc1Nc1ncccc1S(C)(=O)=O [Example 128]  0.061 µM
38. CNC(=O)c1nnc(Nc2cnc(OC)cn2)cc1Nc1ncccc1S(C)(=O)=O [Example 80]  0.057 µM
39. CNC(=O)c1nnc(Nc2cc(C)nc(C)n2)cc1Nc1ncccc1S(C)(=O)=O [Example 98]  0.049 µM
40. CNC(=O)c1nnc(Nc2cc(C(F)(F)F)n(C)n2)cc1Nc1ncccc1S(C)(=O)=O [Example 88]  0.047 µM
41. CNC(=O)c1nnc(Nc2ccc(-c3c(F)cccc3F)nn2)cc1Nc1ncccc1S(C)(=O)=O [Example 104]  0.046 µM
42. CNC(=O)c1nnc(Nc2cnc3c(n2)CCCCC3)cc1Nc1ncccc1S(C)(=O)=O [Example 99]  0.044 µM
43. CNC(=O)c1nnc(Nc2ccc(C(F)(F)F)cn2)cc1Nc1ncccc1S(C)(=O)=O [Example 91]  0.043 µM
44. CNC(=O)c1nnc(Nc2cc(COC)ncn2)cc1Nc1ncccc1S(C)(=O)=O [Example 84]  0.042 µM
45. CNC(=O)c1nnc(Nc2ccc(C(C)(C)NC(=O)OC(C)C)cn2)cc1Nc1ncccc1S(C)(=O)=O [Example 78]  0.04 µM
46. CNC(=O)c1nnc(Nc2ccc(F)nn2)cc1Nc1ncccc1S(C)(=O)=O [Example 86]  0.04 µM
47. CNC(=O)c1nnc(Nc2cccc(C3CC3)n2)cc1Nc1ncccc1S(C)(=O)=O [Example 152]  0.04 µM
48. CCNC(=O)Nc1cc(Nc2ncccc2S(C)(=O)=O)c(C(=O)NC)nn1 [Example 121]  0.039 µM
49. CNC(=O)c1nnc(Nc2cccc(C)n2)cc1Nc1ncccc1S(C)(=O)=O [Example 82]  0.037 µM
50. CNC(=O)c1nnc(Nc2ccc(OC(F)(F)F)cn2)cc1Nc1ncccc1S(C)(=O)=O [Example 140]  0.034 µM
51. CNC(=O)c1nnc(Nc2ccc(-n3cc(Cl)ccc3=O)cn2)cc1Nc1ncccc1S(C)(=O)=O [Example 89]  0.032 µM
52. CNC(=O)c1nnc(Nc2cnc(C)cn2)cc1Nc1ncccc1S(C)(=O)=O [Example 93]  0.028 µM
53. CCOC(=O)NC(C)(C)c1ccc(Nc2cc(Nc3ncccc3S(C)(=O)=O)c(C(=O)NC)nn2)nc1 [Example 79]  0.024 µM
54. CNC(=O)c1nnc(Nc2cc(C(C)(C)NC(C)C)ccn2)cc1Nc1ncccc1S(C)(=O)=O [Example 72]  0.023 µM
55. CNC(=O)c1nnc(Nc2ccc(C(C)(C)N3CCCC3=O)cn2)cc1Nc1ncccc1S(C)(=O)=O [Example 76]  0.02 µM
56. CNC(=O)c1nnc(Nc2ccc(N3CCOCC3)nn2)cc1Nc1ncccc1S(C)(=O)=O [Example 110]  0.02 µM
57. CNC(=O)c1nnc(Nc2ccc(C(C)(C)N3CCOC3=O)cn2)cc1Nc1ncccc1S(C)(=O)=O [Example 75]  0.018 µM
58. CNC(=O)c1nnc(Nc2ccc(N3CCOCC3C)cn2)cc1Nc1ncccc1S(C)(=O)=O (stereo not shown) [Example 103]  0.016 µM
59. CNC(=O)c1nnc(Nc2ccc(N3CC(C)OC(C)C3)cn2)cc1Nc1ncccc1S(C)(=O)=O (stereo not shown) [Example 100]  0.015 µM
60. CNC(=O)c1nnc(Nc2ccc(OC3CCOC3)nn2)cc1Nc1ncccc1S(C)(=O)=O (stereo not shown) [Example 63]  0.013 µM
61. CNC(=O)c1nnc(Nc2ccc(Cl)nn2)cc1Nc1ncccc1S(C)(=O)=O [Example 90]  0.013 µM
62. CNC(=O)c1nnc(Nc2ccc(-n3cccc(C(F)(F)F)c3=O)cn2)cc1Nc1ncccc1S(C)(=O)=O [Example 92]  0.013 µM
63. CNC(=O)c1nnc(Nc2ccc(N3CCOCC3=O)cn2)cc1Nc1ncccc1S(C)(=O)=O [Example 97]  0.013 µM
64. CCOC(=O)N1CCN(c2ccc(Nc3cc(Nc4ncccc4S(C)(=O)=O)c(C(=O)NC)nn3)nc2)CC1 [Example 107]  0.013 µM
65. CNC(=O)c1nnc(Nc2ccc(C)nn2)cc1Nc1ncccc1S(C)(=O)=O [Example 85]  0.011 µM
66. CNC(=O)c1nnc(Nc2ccc(N3CCOC(C)(C)C3)cn2)cc1Nc1ncccc1S(C)(=O)=O [Example 105]  0.009 µM
67. CNC(=O)c1nnc(Nc2cc(COC)ccn2)cc1Nc1ncccc1S(C)(=O)=O [Example 156]  0.007 µM
68. CNC(=O)c1nnc(Nc2ccc(COC)cn2)cc1Nc1ncccc1S(C)(=O)=O [Example 154]  0.006 µM
69. CNC(=O)c1nnc(Nc2ccc(C(C)(C)NC(=O)OC)cn2)cc1Nc1ncccc1S(C)(=O)=O [Example 74]  0.004 µM
70. CNC(=O)c1nnc(Nc2cc(COC)ccn2)cc1Nc1ncccc1S(C)(=O)=O [Example 96]  0.004 µM
71. CNC(=O)c1nnc(Nc2ccc(N3CCOCC3)cn2)cc1Nc1ncccc1S(C)(=O)=O [Example 81]  0.003 µM
72. CNC(=O)c1nnc(Nc2ccc(C(C)(C)O)c(F)n2)cc1Nc1ncccc1S(C)(=O)=O [Example 151]  0.002 µM

Same assay, conditions: Homo sapiens, 1 h incubation with compound, 1000 U/mL recombinant human IFNα A/D for 15 min, pSTAT5 in CD3 positive population, read-out: IFNα-Induced Stat Phosph. (IC50)

Work on `[2H]C([2H])([2H])NC(=O)c1nnc(Nc2ccc(CNC(C)=O)cn2)cc1Nc1ncccc1S(C)(=O)=O` [Example 69, 6-((5-(acetamidomethyl)pyridin-2-yl)amino)-N-(methyl-d3)-4-((3-(methylsulfonyl)pyridin-2-yl)amino)pyridazine-3-carboxamide] yielded an IC50 of 0.012 µM.
